In paper PMC9231376, “Membrane Permeability and Aqueous Stability Study of Linear and Cyclic Diarylheptanoids from Corylus maxima” (Pharmaceutics, 2022):
“And” between values parts separate entries of the source, which are not always exact repeats. Identical values can stand only once.

Tests used:
[1] = Parallel artificial membrane permeability assay for the gastrointestinal tract (PAMPA-GI); assay type: in vitro ADME; conditions: for Papp at 4 h, 100 µM: PAMPA, read-out: log Pe PAMPA-GI (converted); for log Pe PAMPA-GI: donor pH 6.8, acceptor pH 7.4, 37 °C, 4 h, n = 9, Pe in cm/s, n.d. = not detected in the acceptor phase
Procedure: (§1) The test solutions were prepared with dimethyl sulfoxide (DMSO) at the concentration of 10.0 mM. These were diluted with phosphate buffers (pH = 7.4 for the PAMPA-BBB and pH = 6.8 for the PAMPA-GI) to obtain the donor solutions (297.0 μL buffer + 3.0 μL DMSO solution) and filtered through Phenex-RC 15 mm, 0.2 μm syringe filters (Gen-Lab Ltd., Budapest, Hungary). A parallel artificial membrane permeability assay (PAMPA) system was used to determine the effective permeability (Pe) for the compounds of interest. Each well of the top plate (96-well polycarbonate-based filter donor plates (Multiscreen™-IP, MAIPN4510, pore size 0.45 μm; Merck, Darmstadt, Germany) was coated with 5 μL of porcine polar brain lipid extract (PBLE) solution (16.0 mg PBLE + 8.0 mg cholesterol dissolved in 600.0 μL n-dodecane) for the PAMPA-BBB and with 5 μL of the mixture of 8.0 mg phosphatidylcholine + 4.0 mg cholesterol dissolved in 300.0 μL n-dodecane for PAMPA-GI. Thereafter, 150.0 μL of the filtrate was placed on the membrane. The bottom plate (96-well PTFE acceptor plates (MultiScreen Acceptor plate, MSSACCEPTOR; Millipore, Burlington, MA, USA)), was filled with a 300.0 μL buffer solution (0.01 M PBS buffer, pH = 7.4). The donor and acceptor plates were fit, and then the sandwich system was incubated at 37 °C for 4 h in a Stat-Fax 2200. After the incubation the PAMPA plates were separated and the compound concentrations in the donor (CD(t)) and acceptor (CA(t)) solutions, as well as in the donor solution at the zero time point (CD(0)) were determined by UHPLC-DAD. The effective permeability and the membrane retention in the PAMPA-BBB (1) and the PAMPA GI (2) experiments were calculated by the following equations [12]:(1) Pe=−2.303/A(t−τSS)·(VA·VD/VA+VD)·lg[1−(VA+VD/(1−MR)·VD)×(CA(t)/CD(0))] (2) Pe=−2.303/A(t−τSS))·(1/1+ra)·lg[−ra+(1+ra/1−MR)×(CD(t)/CD(0))] where Pe is the effective permeability coefficient (cm/s), A is the filter area (0.24 cm^2), VD and VA are the volumes in the donor (0.15 cm^3) and acceptor phases (0.30 cm^3), t is the incubation time (s), τSS is the time (s) to reach steady-state (240 s), CD(t) is the concentration (mol/cm^3) of the compound in the donor phase at time t, CD(0) is the concentration (mol/cm^3) of the compound in the donor phase at time 0, MR is the estimated membrane retention factor (the estimated mole fraction of solute lost to the membrane) and ra is the sink asymmetry ratio (gradient-pH-induced), defined as (3) ra=VD/VA×Pe(A→D)/Pe(D→A) (4) MR=1−CD(t)/CD(0)−VA/VDCA(t)/CD(0)
(§2) All experiments were performed in triplicates on three consecutive days (n = 9), caffeine standard was used as positive, while rutin as negative control. ClogP values were calculated by ChemAxon Marvin 22.3.

[2] = Determination of aqueous stability (UHPLC-DAD, 4 h at 37 °C); assay type: physicochemical; conditions: for Aqueous stability at all three investigated pH values (in words): pH 1.2, 6.8 and 7.4, no notable change in peak areas, no degradation products detected; for Aqueous stability pH = 1.2: compound concentration after 4 h of incubation compared to the initial value: pH 1.2 simulated gastric fluid, n = 3; for Aqueous stability pH = 6.8: compound concentration after 4 h of incubation compared to the initial value: pH 6.8 simulated intestinal fluid; for Aqueous stability pH = 6.8: compound concentration after 4 h of incubation compared to the initial value / Aqueous stability pH = 7.4: compound concentration after 4 h of incubation compared to the initial value: n = 3, * p < 0.05 vs initial; for Aqueous stability pH = 7.4: compound concentration after 4 h of incubation compared to the initial value: pH 7.4 PBS; for Significance of decrease in compound concentration (in words): paired-sample t-test, p < 0.05, pH 1.2, 6.8, 7.4
Procedure: The aqueous solutions and buffers were prepared as follows: pH = 1.2, 1.0 g NaCl and 3.5 mL HCl dissolved in distilled water to achieve the final volume of 500.0 mL; pH = 6.8, 20.2 g Na2HPO4·7H2O and 3.4 g NaH2PO4·H2O dissolved in distilled water to achieve the final volume of 1000.0 mL, pH adjustment with 0.5 M NaOH or 0.5 M HCl; pH = 7.4, one PBS tablet (phosphate buffered saline, pH 7.4; Sigma Aldrich, St. Louis, MO, USA) dissolved in 200.0 mL of distilled water.
With the aforementioned buffers, 10 mM dimethyl sulfoxide stock solutions of the isolated compounds were diluted 100-fold. […] For degradable compounds, the above-mentioned validated UHPLC-DAD method was used to examine the change in compound concentration. All experiments were performed in triplicates (n = 3).

[3] = Parallel artificial membrane permeability assay for the blood–brain barrier (PAMPA-BBB); assay type: in vitro ADME; conditions: for log Pe PAMPA-BBB: donor pH 7.4, acceptor pH 7.4, 37 °C, 4 h, n = 9, Pe in cm/s, n.d. = not detected in the acceptor phase
Procedure: as §1, §2

Compound	Papp at 4 h, 100 µM [1] [×10⁻⁶ cm/s]	Aqueous stability at all three investigated pH values (in words) [2]	Aqueous stability pH = 1.2: compound concentration after 4 h of incubation compared to the initial value [2] [%]	Aqueous stability pH = 6.8: compound concentration after 4 h of incubation compared to the initial value [2]	Aqueous stability pH = 7.4: compound concentration after 4 h of incubation compared to the initial value [2]	log Pe PAMPA-BBB [3]	log Pe PAMPA-GI [1]	Significance of decrease in compound concentration (in words) [2]	Aqueous stability pH = 7.4: compound concentration after 4 h of incubation compared to the initial value ([2]; listed as 2) [%]	Papp at 4 h, 100 µM ([3]; PAMPA, pH 7.4, read-out: log Pe PAMPA-BBB (converted)) [×10⁻⁶ cm/s]
O=C1CCc2ccc(O)c(c2)-c2cc(ccc2O)C[C@H](O)[C@H](O)[C@H]1O [carpinontriol B (9), carpinontriol B]	3.24	stable	102.75 ± 1.09	101.51 ± 1.75%	103.28 ± 1.81%					
COc1c2cc(c(OC)c1O)Oc1ccc(cc1)CCC(=O)C[C@H](O)/C=C\2 [giffonin F (8), giffonin F]		stable	99.97 ± 1.01	102.68 ± 2.45%	100.92 ± 2.02%	not detected in the acceptor phase	not detected in the acceptor phase			
O=C(/C=C/CCc1ccc(O)c(O)c1)CCc1ccc(O)c(O)c1 [hirsutenone (3), hirsutenone]			99.63 ± 0.37		83.80 ± 2.41 * %	not detected in the acceptor phase	not detected in the acceptor phase	decreased significantly only at pH 7.4		
O=C(CCc1ccc(O)c(O)c1)C[C@H](CCc1ccc(O)c(O)c1)O[C@@H]1OC[C@@H](O)[C@H](O)[C@H]1O [oregonin (2), oregonin]			98.67 ± 2.43	91.22 ± 3.01 * %	59.93 ± 2.85 * %	not detected in the acceptor phase	not detected in the acceptor phase	significant decrease both at pH 6.8 and 7.4	59.93 ± 2.85	
O=C(/C=C/CCc1ccc(O)cc1)CCc1ccc(O)cc1 [platyphyllenone (5), platyphyllenone]	12		99.45 ± 1.05	94.98 ± 2.10% and 94.98 ± 2.10 * %	90.40 ± 1.52% and 90.40 ± 1.52 * %	> −6.0	greater than −5.0	significant decrease both at pH 6.8 and 7.4		5.75
C[C@@H]1O[C@@H](Oc2c(-c3ccc(O)c(O)c3)oc3cc(O)cc(O)c3c2=O)[C@H](O)[C@H](O)[C@H]1O [quercitrin (10), quercitrin]		stable	100.91 ± 0.53	102.35 ± 1.85%	100.75 ± 0.96%	not detected in the acceptor phase	not detected in the acceptor phase			
